Assay results as given in ChEMBL document CHEMBL5108016, “Design, synthesis and neurite outgrowth activity of novel ganglioside GM1 derivatives by remodeling of the fatty acid moiety” (Eur J Med Chem, 2022).
One block for each compound: values may come before it. Activity calls are given as the source filed them. The rule behind the calls is not given here.

Key:
N2a [1] = assay: Upregulation of SREBP2 mRNA expression in mouse Neuro2a cells by qRT-PCR analysis; format: functional, cell-based
N2a [2] = assay: Upregulation of LSS mRNA expression in mouse Neuro2a cells by qRT-PCR analysis; format: functional, cell-based
N2a [3] = assay: Upregulation of NSDHL gene expression in mouse Neuro2a cells by STRING analysis; format: functional, cell-based
N2a [4] = assay: Upregulation of CYP51 mRNA expression in mouse Neuro2a cells by qRT-PCR analysis; format: functional, cell-based
[5] = molecular target: T1, Sterol regulatory element-binding protein 2 (Mus musculus) (UniProt Q3U1N2); assay: Activation of SREBP2 in mouse Neuro2a cells assessed as increase in phosphorylated ERBB4 protein expression by immunoblot analysis; format: cell-based; details: filed as activator
T1 sequence (whole entry): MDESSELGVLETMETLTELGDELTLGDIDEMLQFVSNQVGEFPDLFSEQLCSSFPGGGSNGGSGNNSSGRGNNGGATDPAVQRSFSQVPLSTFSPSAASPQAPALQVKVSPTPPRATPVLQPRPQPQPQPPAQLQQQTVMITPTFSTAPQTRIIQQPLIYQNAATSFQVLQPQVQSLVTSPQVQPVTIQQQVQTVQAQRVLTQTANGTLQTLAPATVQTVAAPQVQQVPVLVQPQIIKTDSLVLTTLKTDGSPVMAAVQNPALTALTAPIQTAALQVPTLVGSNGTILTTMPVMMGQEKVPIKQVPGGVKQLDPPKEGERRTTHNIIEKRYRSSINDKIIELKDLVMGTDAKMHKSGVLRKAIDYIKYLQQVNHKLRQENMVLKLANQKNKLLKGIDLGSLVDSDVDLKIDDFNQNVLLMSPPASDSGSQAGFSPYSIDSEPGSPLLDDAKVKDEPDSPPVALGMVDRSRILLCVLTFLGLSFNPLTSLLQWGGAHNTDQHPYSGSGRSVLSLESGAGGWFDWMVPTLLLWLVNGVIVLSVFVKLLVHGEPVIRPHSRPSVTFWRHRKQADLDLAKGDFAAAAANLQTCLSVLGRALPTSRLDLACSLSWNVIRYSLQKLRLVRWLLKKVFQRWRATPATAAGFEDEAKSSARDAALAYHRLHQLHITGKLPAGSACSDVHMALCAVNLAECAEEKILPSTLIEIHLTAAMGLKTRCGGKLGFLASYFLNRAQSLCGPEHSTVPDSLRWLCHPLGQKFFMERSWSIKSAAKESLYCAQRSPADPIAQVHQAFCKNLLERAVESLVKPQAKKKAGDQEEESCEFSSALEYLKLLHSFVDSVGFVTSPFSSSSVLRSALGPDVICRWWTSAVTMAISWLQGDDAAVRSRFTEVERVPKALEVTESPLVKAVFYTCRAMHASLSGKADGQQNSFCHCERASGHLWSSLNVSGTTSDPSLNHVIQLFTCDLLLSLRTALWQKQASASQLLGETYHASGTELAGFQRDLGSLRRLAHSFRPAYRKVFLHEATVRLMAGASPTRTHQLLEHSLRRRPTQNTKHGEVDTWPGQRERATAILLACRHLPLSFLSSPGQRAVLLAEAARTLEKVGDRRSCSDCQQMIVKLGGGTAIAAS

N2a [6] = assay: Upregulation of CYP51 protein expression in mouse Neuro2a cells by parallel reaction monitoring analysis; format: functional, cell-based
[7] = molecular target: T1, Sterol regulatory element-binding protein 2 (Mus musculus); assay: Activation of SREBP2 in mouse Neuro2a cells assessed as increase in ERBB4 protein expression by immunoblot analysis; format: cell-based; details: filed as activator
N2a [8] = assay: Upregulation of HMGCR mRNA expression in mouse Neuro2a cells by qRT-PCR analysis; format: functional, cell-based
N2a [9] = assay: Upregulation of FDFT1 gene expression in mouse Neuro2a cells by STRING analysis; format: functional, cell-based
N2a [10] = assay: Induction of cholesterol biosynthesis in mouse Neuro2a cells assessed as increase in total cholesterol level; format: functional, cell-based
[11] = molecular target: T1, Sterol regulatory element-binding protein 2 (Mus musculus); assay: Activation of SREBP2 in mouse Neuro2a cells assessed as increase in mTOR protein expression by immunoblot analysis; format: cell-based; details: filed as activator
N2a [12] = assay: Upregulation of PMVK mRNA expression in mouse Neuro2a cells by qRT-PCR analysis; format: functional, cell-based
N2a [13] = assay: Upregulation of ID11 mRNA expression in mouse Neuro2a cells by qRT-PCR analysis; format: functional, cell-based
Cortical neurone [14] = assay: Induction of neurite outgrowth in C57BL/6 mouse Primary cortical neuron assessed as increase in total neurite length at 25 uM incubated for 24 hrs (reference value: 58.3 +/- 8.68 […]); format: functional
N2a [15] = assay: Induction of neurite outgrowth in mouse Neuro2a cells assessed as increase in GAP43 protein expression at 25 uM incubated for 24 hrs by immunoblotting analysis; format: functional, cell-based
N2a [16] = assay: Upregulation of MVD mRNA expression in mouse Neuro2a cells by qRT-PCR analysis; format: functional, cell-based
N2a [17] = assay: Upregulation of NSDHL mRNA expression in mouse Neuro2a cells by qRT-PCR analysis; format: functional, cell-based
N2a [18] = assay: Upregulation of SQLE mRNA expression in mouse Neuro2a cells by qRT-PCR analysis; format: functional, cell-based
N2a [19] = assay: Upregulation of LSS gene expression in mouse Neuro2a cells by STRING analysis; format: functional, cell-based
N2a [20] = assay: Upregulation of NSDHL protein expression in mouse Neuro2a cells by parallel reaction monitoring analysis; format: functional, cell-based
N2a [21] = assay: Upregulation of MVK mRNA expression in mouse Neuro2a cells by qRT-PCR analysis; format: functional, cell-based
N2a [22] = assay: Upregulation of FDPS protein expression in mouse Neuro2a cells by parallel reaction monitoring analysis; format: functional, cell-based
N2a [23] = assay: Upregulation of FDF1 mRNA expression in mouse Neuro2a cells by qRT-PCR analysis; format: functional, cell-based
N2a [24] = assay: Internalization of ERBB4 in mouse Neuro2a cells assessed as retention of ERBB4 level in lipids raft of cells by immunoblot analysis; format: functional, cell-based
N2a [25] = assay: Upregulation of DHCR7 protein expression in mouse Neuro2a cells by parallel reaction monitoring analysis; format: functional, cell-based
N2a [26] = assay: Upregulation of DHCR7 mRNA expression in mouse Neuro2a cells by qRT-PCR analysis; format: functional, cell-based
Cortical neurone [27] = assay: Induction of neurite outgrowth in C57BL/6 mouse Primary cortical neuron assessed as change in neurite number per cell at 25 uM incubated for 24 hrs; format: functional, cell-based
[28] = Cytotoxicity against mouse Neuro2a cells assessed as inhibition of cell growth incubated for 24 hrs by MTT assay; format: toxicity, cell-based, N2a
N2a [29] = assay: Upregulation of HMGCS1 gene expression in mouse Neuro2a cells by STRING analysis; format: functional, cell-based
N2a [30] = assay: Upregulation of LSS protein expression in mouse Neuro2a cells by parallel reaction monitoring analysis; format: functional, cell-based
N2a [31] = assay: Upregulation of phosphorylated TrkA expression in mouse Neuro2a cells by immunoblot analysis; format: functional, cell-based
N2a [32] = assay: Upregulation of SREBP2 gene expression in mouse Neuro2a cells by STRING analysis; format: functional, cell-based
N2a [33] = assay: Upregulation of MVD gene expression in mouse Neuro2a cells by STRING analysis; format: functional, cell-based
N2a [34] = assay: Upregulation of FDPS mRNA expression in mouse Neuro2a cells by qRT-PCR analysis; format: functional, cell-based
N2a [35] = assay: Upregulation of HMGCS mRNA expression in mouse Neuro2a cells by qRT-PCR analysis; format: functional, cell-based
N2a [36] = assay: Upregulation of ACAT2 gene expression in mouse Neuro2a cells by STRING analysis; format: functional, cell-based
N2a [37] = assay: Upregulation of CYP51 gene expression in mouse Neuro2a cells by STRING analysis; format: functional, cell-based
N2a [38] = assay: Upregulation of HMGCS1 protein expression in mouse Neuro2a cells by parallel reaction monitoring analysis; format: functional, cell-based
N2a [39] = assay: Upregulation of FDPS gene expression in mouse Neuro2a cells by STRING analysis; format: functional, cell-based
N2a [40] = assay: Induction of cholesterol biosynthesis in mouse Neuro2a cells assessed as increase in total cholesteryl level; format: functional, cell-based
N2a [41] = assay: Upregulation of HMGCR protein expression in mouse Neuro2a cells by parallel reaction monitoring analysis; format: functional, cell-based
N2a [42] = assay: Induction of neurite outgrowth in mouse Neuro2a cells assessed as increase in neurite-number per cells at 25 uM incubated for 24 hrs; format: functional, cell-based
N2a [43] = assay: Induction of neurite outgrowth in mouse Neuro2a cells assessed as increase in percentage of neurite-bearing cells at 25 uM incubated for 24 hrs; format: functional, cell-based
N2a [44] = assay: Induction of neurite outgrowth in mouse Neuro2a cells assessed as increase in neurite-length per cells at 25 uM incubated for 24 hrs; format: functional, cell-based

Activity [5]: Active
Activity [7]: Active
Activity [11]: Active
SMILES: CCCCCCCCCCCCC/C=C/[C@@H](O)[C@H](CO[C@@H]1O[C@H](CO)[C@@H](O[C@@H]2O[C@H](CO)[C@H](O[C@@H]3O[C@H](CO)[C@H](O)[C@H](O[C@@H]4O[C@H](CO)[C@H](O)[C@H](O)[C@H]4O)[C@H]3NC(C)=O)[C@H](O[C@]3(C(=O)O)C[C@H](O)[C@@H](NC(C)=O)[C@@H]([C@@H](O)[C@H](O)CO)O3)[C@H]2O)[C@H](O)[C@H]1O)NC(=O)CCCCCCCCCCCCCCCCC
Activity (N2a [1]): Active
Activity (N2a [2]): Active
Activity (N2a [3]): Active
Activity (N2a [4]): Active
Activity (N2a [6]): Active
Activity (N2a [8]): Active
Activity (N2a [9]): Active
Activity (N2a [10]): Active
Activity (N2a [12]): Active
Activity (N2a [13]): Active
Activity (Cortical neurone [14]): 80.1 um
Activity (N2a [15]): Active
Activity (N2a [16]): Active
Activity (N2a [17]): Active
Activity (N2a [18]): Active
Activity (N2a [19]): Active
Activity (N2a [20]): Active
Activity (N2a [21]): Active
Activity (N2a [22]): Active
Activity (N2a [23]): Active
Activity (N2a [24]): Active
Activity (N2a [25]): Active
Activity (N2a [26]): Active
Activity (Cortical neurone [27]): Active
IC50 at 24 h [28]: > 200 µM
Activity (N2a [29]): Active
Activity (N2a [30]): Active
Activity (N2a [31]): Active
Activity (N2a [32]): Active
Activity (N2a [33]): Active
Activity (N2a [34]): Active
Activity (N2a [35]): Active
Activity (N2a [36]): Active
Activity (N2a [37]): Active
Activity (N2a [38]): Active
Activity (N2a [39]): Active
Activity (N2a [40]): Active
Activity (N2a [41]): Active

SMILES: CCCCCC/C=C\CCCCCCCC(=O)N[C@@H](CO[C@@H]1O[C@H](CO)[C@@H](O[C@@H]2O[C@H](CO)[C@H](O[C@@H]3O[C@H](CO)[C@H](O)[C@H](O[C@@H]4O[C@H](CO)[C@H](O)[C@H](O)[C@H]4O)[C@H]3NC(C)=O)[C@H](O[C@]3(C(=O)O)C[C@H](O)[C@@H](NC(C)=O)[C@@H]([C@@H](O)[C@H](O)CO)O3)[C@H]2O)[C@H](O)[C@H]1O)[C@H](O)/C=C/CCCCCCCCCCCCCCC
Activity (N2a [42]): Active
Activity (N2a [43]): Active
IC50 at 24 h [28]: > 200 µM
Activity (N2a [44]): Active

SMILES: CCCCCC/C=C\CCCCCCCC(=O)N[C@@H](CO[C@@H]1O[C@H](CO)[C@@H](O[C@@H]2O[C@H](CO)[C@H](O[C@@H]3O[C@H](CO)[C@H](O)[C@H](O[C@@H]4O[C@H](CO)[C@H](O)[C@H](O)[C@H]4O)[C@H]3NC(C)=O)[C@H](O[C@]3(C(=O)O)C[C@H](O)[C@@H](NC(C)=O)[C@@H]([C@@H](O)[C@H](O)CO)O3)[C@H]2O)[C@H](O)[C@H]1O)[C@H](O)/C=C/CCCCCCCCCCCCC
Activity (N2a [42]): Active
Activity (N2a [43]): Active
Activity (N2a [44]): Active

SMILES: CCCCCC/C=C\CCCC(=O)N[C@@H](CO[C@@H]1O[C@H](CO)[C@@H](O[C@@H]2O[C@H](CO)[C@H](O[C@@H]3O[C@H](CO)[C@H](O)[C@H](O[C@@H]4O[C@H](CO)[C@H](O)[C@H](O)[C@H]4O)[C@H]3NC(C)=O)[C@H](O[C@]3(C(=O)O)C[C@H](O)[C@@H](NC(C)=O)[C@@H]([C@@H](O)[C@H](O)CO)O3)[C@H]2O)[C@H](O)[C@H]1O)[C@H](O)/C=C/CCCCCCCCCCCCC
IC50 at 24 h [28]: < 25 µM
